Six compounds from ChEMBL document CHEMBL1126376, “Synthesis and activities of 9-pyrrolo-9-deoxoerythromycin a analogs” (1992) can be followed below.

Each structure is given as a SMILES string. Converted amounts (≈) assume the structure as drawn.

Holding throughout (assay): microbe, parasite or virus in culture
Common to all, as to type: functional

The test system of assay [1] is Enterococcus faecalis.
Assay [2] relates to Streptococcus pyogenes.
Assay [3] has as its system Haemophilus influenzae.
For assay [4], the system named is Staphylococcus aureus.
For assay [5], the system named is Streptococcus pneumoniae.
Assay [6] relates to Staphylococcus epidermidis.

Turning to `CC[C@H]1OC(=O)[C@H](C)[C@@H](O[C@H]2C[C@@](C)(OC)[C@@H](O)[C@H](C)O2)[C@H](C)[C@@H](O[C@@H]2O[C@H](C)C[C@H](N(C)C)[C@H]2O)[C@](C)(O)C[C@@H](C)[C@@H](n2ccc(O)c2C(=O)OC(C)(C)C)[C@H](C)[C@@H](O)[C@]1(C)O`, the MIC was 64 µg/mL (≈ 71 µM) in assay [1]; 8 µg/mL (≈ 8.88 µM) in assay [2]; > 128 µg/mL in assay [3]; 64 µg/mL (≈ 71 µM) in assay [4]; 16 µg/mL (≈ 17.8 µM) in assay [5]; 64 µg/mL (≈ 71 µM) in assay [6].

As to `CC[C@H]1OC(=O)[C@H](C)[C@@H](O[C@H]2C[C@@](C)(OC)[C@@H](O)[C@H](C)O2)[C@H](C)[C@@H](O[C@@H]2O[C@H](C)C[C@H](N(C)C)[C@H]2O)[C@](C)(O)C[C@@H](C)[C@H](n2ccc(C=O)c2)[C@H](C)[C@@H](O)[C@]1(C)O`, the MIC in assay [1] is 64 µg/mL (≈ 78.7 µM); in assay [2], 32 µg/mL (≈ 39.4 µM); in assay [3] it was 64 µg/mL (≈ 78.7 µM); in assay [4] it was 32 µg/mL (≈ 39.4 µM); in assay [5], 64 µg/mL (≈ 78.7 µM); in assay [6], 32 µg/mL (≈ 39.4 µM).

`CC[C@H]1OC(=O)[C@H](C)[C@@H](O[C@H]2C[C@@](C)(OC)[C@@H](O)[C@H](C)O2)[C@H](C)[C@@H](O[C@@H]2O[C@H](C)C[C@H](N(C)C)[C@H]2O)[C@](C)(O)C[C@@H](C)[C@@H](n2cccc2)[C@H](C)[C@@H](O)[C@]1(C)O`: the MIC in assay [1] was 32 µg/mL (≈ 40.8 µM); in assay [3] it was > 128 µg/mL; in assay [4] it was 128 µg/mL (≈ 163 µM); in assay [5] it was 2 µg/mL (≈ 2.55 µM); in assay [6] it was 64 µg/mL (≈ 81.5 µM).

Consider `CC[C@H]1OC(=O)[C@H](C)[C@@H](O[C@H]2C[C@@](C)(OC)[C@@H](O)[C@H](C)O2)[C@H](C)[C@@H](O[C@@H]2O[C@H](C)C[C@H](N(C)C)[C@H]2O)[C@](C)(O)C[C@@H](C)[C@H](n2cccc2)[C@H](C)[C@@H](O)[C@]1(C)O`, for which the MIC in assay [1] was 64 µg/mL (≈ 81.5 µM); in assay [2], 4 µg/mL (≈ 5.1 µM); in assay [3], 128 µg/mL (≈ 163 µM); in assay [4], 64 µg/mL (≈ 81.5 µM); in assay [5] it was 4 µg/mL (≈ 5.1 µM); in assay [6] it was 32 µg/mL (≈ 40.8 µM).

In the case of `CC[C@H]1OC(=O)[C@H](C)[C@@H](O[C@H]2C[C@@](C)(OC)[C@@H](O)[C@H](C)O2)[C@H](C)[C@@H](O[C@@H]2O[C@H](C)C[C@H](N(C)C)[C@H]2O)[C@](C)(O)C[C@@H](C)[C@H](n2ccc(O)c2C(=O)OC(C)(C)C)[C@H](C)[C@@H](O)[C@]1(C)O`, the MIC in assay [1] amounted to 16 µg/mL (≈ 17.8 µM); in assay [2] it was 0.25 µg/mL (≈ 0.277 µM); in assay [3] it was 32 µg/mL (≈ 35.5 µM); in assay [4], 8 µg/mL (≈ 8.88 µM); in assay [5], 0.5 µg/mL (≈ 0.555 µM); in assay [6], 4 µg/mL (≈ 4.44 µM).

On to `CC[C@H]1OC(=O)[C@H](C)[C@@H](O[C@H]2C[C@@](C)(OC)[C@@H](O)[C@H](C)O2)[C@H](C)[C@@H](O[C@@H]2O[C@H](C)C[C@H](N(C)C)[C@H]2O)[C@](C)(O)C[C@@H](C)[C@@H](n2ccc(C=O)c2)[C@H](C)[C@@H](O)[C@]1(C)O`, for which the MIC in assay [1] came to 16 µg/mL (≈ 19.7 µM); in assay [3], 128 µg/mL (≈ 157 µM); in assay [4], 32 µg/mL (≈ 39.4 µM); in assay [5], 1 µg/mL (≈ 1.23 µM); in assay [6], 8 µg/mL (≈ 9.84 µM).
